What was measured:
[1] = test system: KB cells and its drug resistant cells; assay: Cross resistance studies in drug resistant cell lines; format: cell-based, human; conditions: cells resistant to VP-16, VCR, CPT or DOX
Text: (§1) FIG. 1 illustrates the following referred to in the Examples herein: • “A. Chemical structure” provides the structural formulae for (+)-(S)-tylophorine (also referred to herein as compound “III-2” and DCB-3500); DCB-3501; “compound II-3a of FIG. 15”; and, in FIGS. 18-22, as […]); DCB-3502 (also referred to herein as “compound II-2); and DCB-3503 (also referred to herein as “NSC 716802”; “compound II-3b” of FIG. 15; and “ZH-152”). • “Table 1, B and C” provides EC50 and LD50 values for use of DCB-3500, DCB-3501, DCB-3502, and DCB-3503 against KB and HepG2 cancer cell lines resistant to various anticancer drugs, including VP-16 (etoposide), VCR (vincristine), CPT (camptothecin), and DOX (doxorubicin). • “Table 2 A, and B, and Table 3” illustrate that KB and HepG2 cancer cell lines are inhibited by the compounds of the instant invention. […] At the end of treatment, cells were washed, resuspended in PBS and stained with propidium iodide containing Rnase A for flow cytometric analysis. Data were analyzed using Modfit software.
FIG. 18 describes cross resistance studies in KB cell lines using DCB-3503.
(§2) Cells (1×10^4/well) were plated in 24-well plates. After 24 h, cells were treated with drugs for three generation times, then fixed and stained with 0.5% methylene blue in 50% ethanol for 2 h, followed by washing with tap water to remove excess color. Plates were dried and then resuspended in 1% sarkosyl, rotated at room temperature for 3 h. Cell growth was quantitated from the amount of methylene blue absorbed to the cells as measured by a spectrophotometer (Molecular Dynamics) at 595 nm. All experiments were performed in triplicate wells and were repeated at least three times. (see FIG. 1, Table 1B and Table 1C).

[2] = test system: HepG2 (hepatocarcinoma); assay: In vitro cell culture growth inhibition, HepG2; format: cell-based, human
Protocol: (§3) Compound II-3 (NSC-716802) was tested in in vitro cell culture studies.
as §2

[3] = test system: KB (head and neck cancer); assay: In vitro cell culture growth inhibition, KB; format: cell-based, human
Protocol: as §3, §2

[4] = test system: NF-κB mediated transcription; assay: Firefly luciferase reporter assay in HepG2 cells; format: cell-based, human; conditions: HepG2 cells transfected with pBIIX-luc, TNFa stimulation
Protocol: HepG2 cells were transiently transfected with firefly luciferase reporter vectors pMyc-TA-luc, pE2F-TAO-luc, pAP1-luc, pCRE-luc, or pBIIX-luc (containing two tandemly repeated NF-kB binding sites), respectively, along with internal control vector phRL-luc which is a promoterless renilla luciferase reporter vector. The day after transfection, cells were pretreated with increasing concentrations of 3500 for 1 h, then cells were stimulated with serum for 24 h, or TPA, forskolin or TNFa for 6 h Firefly and renilla uciferase activities were measured using Promega's dual-luciferase assay kit Data presented is firefly luciferase activity.
HepG2 cells were plated at a density of 2×10^4 per well (48-well plate) and transfected with 0.2 μg of firefly luciferase reporter vector pMyc-TA-luc, pE2F-TA-luc, pAP1-luc, pCRE-luc, or pBIIX-luc (containing two tandemly repeated NF-κB binding sites) respectively, along with internal control vector promoter-less renilla luciferase reporter vector phRL (Promega), using FuGENE 6™ transfection reagent according to the manufacturer's instructions. Cell extracts were prepared and luciferase activity was measured using a Dual-luciferase (firefly and renilla luciferase) assay kit according to the manufacturer's instructions.

[5] = test system: human cell-line tumor panel; assay: NCI human cell-line tumor panel (DTP screen); format: cell-based; conditions: for antitumor activity in NCI in vitro screen: sixty-panel in vitro screen against human-derived tumors; for LC50 for several melanoma and lung cancer cell lines versus the other cell lines: DTP panel; for ranking by average concentration required for total growth inhibition (TGI): screen of 33,744 compounds, fifty-four cell lines
Text: The ranking system was based on the average concentration required to yield a total growth inhibition (TGI) in the numbers of cell lines of the screen (54 for tylo F and tylo G). […] In fact, for many cell lines, the data were off scale; designated as <10^−10 M.

[6] = test system: KB cells; assay: Cell cycle analysis (flow cytometry), KB; format: cell-based, human; conditions: 24 h treatment
Text: as §1
(§4) KB and HepG2 cells were treated for 24 h with increasing concentrations of DCB-3500 and DCB-3503. At the end of treatment, cells were trypsinized, and the resulting cell suspensions were centrifuged at 1000 rpm for 5 min. The cells were fixed overnight in 70% ethanol at 4° C., centrifuged at 1000 rpm for 5 min, the pellets were washed twice with ice-cold PBS. Cell pellets were then resuspended in 0.5 ml PBS containing 50 μg/ml propidium iodide (Sigma-Aldrich) and 100 μg/ml RNase A (Sigma-Aldrich), incubated at 37° C. for 30 min, and then analyzed by FACScan using Cell Quest software (Becton Dickinson Labware, Franklin Lakes, N.J.). Data were analyzed using Modfit LT version 3.1 software (Verity Software House, Topsham, Me.) for cell cycle profile. (FIG. 1, Table 3)

[7] = test system: HepG2 cells; assay: Cell cycle analysis (flow cytometry), HepG2; format: cell-based, human; conditions: 24 h treatment
Text: as §1, §4

[8] = test system: KB and HepG2 cells; assay: Clonogenic assay; format: cell-based, human; conditions: 24 h exposure, colonies counted after 8 generations
Protocol: FIG. 19 illustrates the effect of DCB-3503 (ZH-152) in clonogenic assays. As depicted, cells were seeded at 5×10^4 per well, then DCB-3503 was added at concentrations ⅓, 1× and 3× the IG50. After a 24 h treatment, the cells were recounted and seeded into a fresh 6 well plate at 200 cells per well. After 8 generations of time the colonies were stained with methylene blue and counted. The cloning efficiency for HepG2 was 10% and for KB was 94%. Both cell lines were exposed to DCB-3503 with the concentration indicated for 24 h. The loss of clonegenic efficiency of cells post drug treatment is shown. […] This supports the previous observation using a different procedure.
They were then grown in the absence of the drug. After eight generations, the colonies were stained and counted.
Cells (5×10^4/well) were plated in 6-well plates. After 24 h, cells were treated with drugs for an additional 24 h. Cells were then trypsinized, counted, and cell viability was determined by trypan blue staining, 200 trypan blue negative cells were plated in triplicate in 6-well plates and grown for eight to ten generation times, then fixed and stained with 0.5% methylene blue in 50% ethanol for 1 h, after plates were washed and dried, the colonies were counted. (FIG. 1, Table 1C).

[9] = test system: HepG2 tumor; assay: HepG2 tumor growth inhibition in nude mice; format: in vivo; conditions: 10 mg/kg ip once daily for 5 days; for tumor growth inhibition: HepG2 tumor-bearing nude mice
Text: FIG. 22 illustrates toxicity and tumor growth inhibition studies using DCB-3503.
Four-week-old male NCR-nude mice were obtained from Taconic, and acclimated to laboratory conditions 1 week before tumor implantation. Human HepG2 tumor xenografts were established by injecting subcutaneously 2×10^6 HepG2 cells. […] Tumor weight was estimated by using the equation: Length of tumor×(wide of tumor/2)^2. (FIG. 1(a))

[10] = Toxicity studies in C57BL/6 mice; format: in vivo
Text: FIG. 21 illustrates toxicity studies of DCB-3503 in C57BL/6 mice.

[11] = test system: SK-MEL-2; assay: In vitro cell culture growth inhibition, SK-MEL-2; format: cell-based, human
Protocol: as §3, §2

COc1cc2c(cc1OC)-c1cc(OC)c(OC)cc1[C@H]1CN3CCCC3C=C21 (stereo partly drawn) [II-2, (S)-2,3,6,7-Tetramethoxy-8b,9,10,11,12,12a-hexahydro-9a-aza-cyclopenta[b]-triphenylene]
cross-resistance with conventional anticancer drugs [1]: no cross-resistance | potency relative to compound II-3 (times more) ([2]; HepG2 cell growth in culture): 3 to 5 | potency relative to compound II-3 (times more) ([3]; KB cell growth in culture): 3 to 5 | activity against NF-κB mediated transcription [4]: potent activity | antitumor activity in NCI in vitro screen [5]: active | antitumor activity in NCI in vitro screen ([5]; listed as NSC-717335): potent antitumor activity

COc1cc2c(cc1OC)[C@H]1CN3CCC[C@H]3C=C1c1ccc(OC)c(O)c1-2 [tylo H, tyloindicine H]
antitumor activity in NCI in vitro screen [5]: active

COc1cc2c3c(c4cc(OC)c(OC)cc4c2cc1OC)[C@@H](O)[C@@H]1CCCN1C3 [DCB-3501]
cross-resistance with conventional anticancer drugs [1]: no cross-resistance | antitumor activity in NCI in vitro screen [5]: extraordinary antitumor activity

COc1cc2c(cc1OC)-c1cc(OC)c(OC)cc1[C@H]1CN3CCC[C@@]3(O)C=C21 [tylo G, tyloindicine G]
LC50 for several melanoma and lung cancer cell lines versus the other cell lines [5]: two orders of magnitude less | ranking by average concentration required for total growth inhibition (TGI) [5]: most potent anticancer agents examined

COc1ccc(C2=CN3CCC[C@H]3C=C2c2cc(O)c(OC)c(OC)c2)cc1OC [tylo I, tyloindicine I]
antitumor activity in NCI in vitro screen [5]: active

COc1cc2c3c(c4cc(OC)c(OC)cc4c2cc1OC)CN1CCCC1C3 (stereo in doubt) [DCB-3500, (+)-(S)-tylophorine]
effect on cell cycle progression (S phase) [6]: induce S phase accumulation | cross-resistance with conventional anticancer drugs [1]: no cross-resistance | effect on cell cycle progression (S phase) [7]: not in HepG2 cells | activity against NF-κB mediated transcription [4]: potent activity

COc1cc2c3c(c4cc(OC)c(OC)cc4c2cc1OC)[C@H](O)[C@@H]1CCCN1C3 [II-3, (12S,13S)-2,3,6,7-Tetramethoxy-9,10,11,12,12a,13-hexahydro-9a-aza-cyclopenta[b]triphenylen-13-ol]
loss of clonogenic efficiency, HepG2 versus KB [8]: more sensitive | loss of clonogenic efficiency, HepG2 versus KB ([8]; listed as DCB-3503): HepG2 is much more sensitive than KB cells | effect on cell cycle progression (S phase) [6]: inhibition at targets that are responsible for S-phase progression | effect on cell cycle progression (S phase) ([6]; listed as 3503): induce S phase accumulation | effect on cell cycle progression (S phase) ([6]; listed as DCB-3503): slows down the cell progress in S-phase | cross-resistance with conventional anticancer drugs [1]: sensitive | cross-resistance with conventional anticancer drugs ([1]; listed as 3503): no cross-resistance | cross-resistance with conventional anticancer drugs ([1]; listed as ZH-152): still sensitive | weight loss ([9]; HepG2 tumor-bearing mice): without significant weight loss | tumor growth inhibition ([9]; 10 mg/kg): profound antitumor effect | tumor growth inhibition ([9]; listed as DCB-3503, 10 mg/kg): potent inhibitory activity | acute toxicity [10]: manageable | toxicity (dose causing weight loss) [10]: 10 mg/kg | effect on cell cycle progression (S phase) [7]: inhibition at targets that are responsible for S-phase progression | effect on cell cycle progression (S phase) ([7]; listed as 3503): not in HepG2 cells | effect on cell cycle progression (S phase) ([7]; listed as DCB-3503): slows down the cell progress in S-phase | GI50 ([2]; HepG2): 0.06 µM | GI50 ([3]; KB): 0.2 µM | GI50 [11]: 0.16 µM | activity against NF-κB mediated transcription [4]: potent activity | antitumor activity in NCI in vitro screen [5]: active | antitumor activity in NCI in vitro screen ([5]; listed as 3503): extraordinary antitumor activity | antitumor activity in NCI in vitro screen ([5]; listed as NSC-716802): potent antitumor activity

COc1ccc(C2=C[C@]3(O)CCCN3C[C@@H]2c2ccc(OC)c(OC)c2)cc1 [tylo F, tyloindicine F]
LC50 for several melanoma and lung cancer cell lines versus the other cell lines [5]: two orders of magnitude less | ranking by average concentration required for total growth inhibition (TGI) [5]: most potent anticancer agents examined

Reference: patent US20050222418A1, “Novel tyloindicines and related processes, pharmaceutical compositions and methods” (priority 2002, published 2005)
